A short description of test [1]: Binding affinity at CCR was determined by displacement of [125I]- alpha-BgT from Torpedo californica electroplax. Further details: species or system Tetronarce californica.
Test [2] is described as follows: Binding affinity at CCR was determined by displacement of [125I]- alpha-BgT from rat brain. The format is tissue-based.
The nature of test [3]: Binding affinity at CCR was determined by displacement of [3H]cytisine from rat brain. The format is tissue-based.
Test [4] concerns the target Muscarinic acetylcholine receptor (Rattus norvegicus). The test can be described thus: Binding affinity at muscarinic receptor was determined by displacement of [3H]OXO-M from rat brain.
A short description of test [5]: Binding affinity at CCR was determined by displacement of [3H]nicotine from rat brain. In kind it is tissue-based.

pKi: −log10 of the molar value.

Take `Cc1cc([C@@H]2CCCN2)on1`: the pKi is less than 4.70 in test [1], less than 4.70 in test [2], 6.48 in test [3] and less than 4.70 in test [4].
On to `c1cncc([C@H]2CCCN2)c1`, for which the pKi in test [1] is 6.52; in test [5] it was 7.39.
In turn, `Cc1cc([C@H]2CCCN2C)on1` gave a pKi in test [3] of 7.36.
On to `Cc1cc([C@H]2CCCN2)on1`, for which the pKi in test [1] is 5.47; in test [2], less than 4.70; in test [3], 8.13; in test [4], 5.10.
In test [5], `CN1CCC[C@H]1c1cccnc1` [NICOTINE] gave a pKi of 8.85.
For `c1cncc([C@@H]2CCCN2)c1` [NORNICOTINE], the pKi in test [1] is 4.96; in test [5] it was 7.25.
The compound `CN1CCC[C@@H]1c1cccnc1` [R-NICOTINE] gave a pKi in test [5] of 7.49.

The record behind these values is ChEMBL document CHEMBL1127693, “Novel isoxazoles which interact with brain cholinergic channel receptors have intrinsic cognitive enhancing and anxiolytic activities” (J Med Chem, 1994).
